US20150064255A1, “NANOSTRUCTURES FOR TREATING CANCERS AND OTHER CONDITIONS” (Northwestern University, priority 2012, published 2015)

Columns and labels:
SR-B1 = target: T1, SR-B1 (Homo sapiens, UniProt Q8WTV0); assay: BLT-1 cholesterol flux assays in SUDHL-4 cells; format: cell-based; details: SUDHL-4 cells pre-treated with 10 μM BLT-1 for 2 hr
T1 construct: treatment of SUDHL-4 cells with BLT-1 allowed a measurement of engagement and cholesterol flux through SR-B1; endogenous in cells; host or cells: SUDHL-4 cells
T1 sequence (Q8WTV0 1-552): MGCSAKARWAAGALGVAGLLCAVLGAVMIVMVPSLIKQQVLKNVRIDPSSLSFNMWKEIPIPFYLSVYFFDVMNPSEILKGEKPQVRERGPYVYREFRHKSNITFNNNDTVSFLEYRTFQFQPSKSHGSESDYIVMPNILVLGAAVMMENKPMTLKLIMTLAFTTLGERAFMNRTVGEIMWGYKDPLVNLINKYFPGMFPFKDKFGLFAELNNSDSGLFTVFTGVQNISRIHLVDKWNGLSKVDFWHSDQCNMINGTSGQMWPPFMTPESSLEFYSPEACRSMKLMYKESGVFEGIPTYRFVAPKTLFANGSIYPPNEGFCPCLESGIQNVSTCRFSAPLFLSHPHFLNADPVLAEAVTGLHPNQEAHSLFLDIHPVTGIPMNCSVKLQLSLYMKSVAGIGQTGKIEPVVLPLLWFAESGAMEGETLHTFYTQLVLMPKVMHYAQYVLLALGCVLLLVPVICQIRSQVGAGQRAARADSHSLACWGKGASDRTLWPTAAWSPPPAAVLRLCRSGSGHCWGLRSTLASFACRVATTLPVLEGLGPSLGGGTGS
Experimental: Blocker of lipid transport-1 (BLT-1) is a small molecule that binds cysteine-384 in the extracellular loop domain of SR-B1 and inhibits cholesterol flux through SR-B1 without altering the binding of HDL particles to the receptor. Thus, treatment of SUDHL-4 cells with BLT-1 allowed a measurement of engagement and cholesterol flux through SR-B1.
Alterations in cholesterol flux after addition of blocker of lipid transport 1 (BLT-1) were measured as described above; however, cells were pre-treated with 10 μM BLT-1 (2-hexyl-1-cyclopentanone thiosemicarbazone, ChemBridge Corporation) for 2 hr prior to cell treatments. Following cholesterol influx or efflux, the cells were collected in fresh media for measurement of cholesterol flux as previously described. Efflux is expressed as a percentage of the control cells, which were not treated with BLT-1. Influx is expressed as a percentage of the control cells, which were not treated with BLT-1.

Ramos cells = assay: MTS cell viability assay; format: cell-based, human; details: untreated control set to 100%
Excerpt: Ramos and SUDHL-4 cell lines are GC-derived B cell lines from BL and DLBCL, respectively. In addition, we chose to study the ABC-like DLBCL line, LY3. Jurkat cells and normal human lymphocytes provided SR-B1 receptor negative controls. In addition, we also chose two primary cells known to express SR-B1 that are critical cell types naturally engaged by HDLs, hepatocytes and macrophages. For each of the cell types, we measured cell viability by an MTS assay following treatment with human serum derived HDL (hHDL) or HDL-NPs. MTS is a colorimetric assay where the magnitude of absorbance is proportional to cell viability. For each treatment, and for each comparison made throughout our studies, we added equivalent doses of hHDL and HDL-NPs based upon the amount of apolipoprotein A-1 (Apo A1). […] Treatment with hHDL or HDL-NPs had no effect in primary hepatocytes or macrophage cells (FIGS. 3C and 3D). […]
For primary human hepatocytes and CD14+ monocytes, 9×10^3 cells/90 μL were seeded in 96-well plates and allowed to attach, and differentiate in the case of the CD14+ monocytes, for 24 hours prior to initiation of treatment. […] The absorbance was read at 490 nm using a microplate reader (MRX Revelation; DYNEX Technologies) and was expressed as a percentage of the control group. […]

SMILES | cholesterol flux to hHDL and HDL-NPs (SR-B1) | relative absorbance, MTS assay (cell viability) (Ramos cells)
CCCCCCC1CCCC1=NNC(N)=S (centres unmarked) [BLT-1, 2-hexyl-1-cyclopentanone thiosemicarbazone] | inhibited cholesterol flux | 
CCCCCCCCCCCCCCCC(=O)OC[C@H](COP(=O)(O)OCCNC(=O)CCSSc1ccccn1)OC(=O)CCCCCCCCCCCCCCC [PDP PE, 1,2-dipalmitoyl-sn-glycero-3-phosphoethanolamine-N-[3-(2-pyridyldithio)propionate]] |  | relatively small but statistically significant reduction
